Assay results taken from patent US20250123282A1, “METHODS FOR EVALUATION AND TREATMENT OF TYROSINE KINASE INHIBITOR (TKI)-RESISTANT ACUTE MYELOID LEUKEMIA” (LOMA LINDA UNIVERSITY, priority 2021, published 2025).

Tests used:
MV4-11 cells [1] = assay: qPCR analyses of gene expression changes in TKI-treated MV4-11; assay type: cell-based, human
Description: MV4-11 cells (3 days after TKI treatment) were harvested and analyzed by reverse transcription quantitative polymerase chain reaction (qPCR). The qPCR data of four genetic aspects including cell death, kinases specialized in phosphorylation of BAD, JAK/STAT signaling pathway, and intrinsic inhibitory pathways were compared. […] Next, to investigate which kinases are responsible for the phosphorylation of BAD (pBAD) after TKI treatment, screenings of those kinase candidates reported to phosphorylate BAD under physiological conditions were conducted. […] Elevated gene expressions of both PIM2 and PIM3 have been found in adult AML patients associated with poor survival.
(§1) Small Molecular Inhibitors and in vitro & ex vivo Treatment. […] The dose of 80 nM for the four TKIs was selected based on their dose-dependent cytotoxicity in previous reports. […] Both GILT and QUIZ were reported to start to suppress the tumorigenic clustering and c-Kit at the dose of 80 nM. […] The combination of 5 μM 5-Azacitidine (AZA) and 80 nM 1α,25-Dihydroxyvitamin D3 (VD3) was added to the experimental group similar to the previous report. As combination agents to treat blasts in vitro, one dose of 80 nM GILT with one dose of either 100 nM Venetoclax (BCL2 inhibitor), 10 μM (R)-Lisofylline (STAT4 inhibitor), 100 nM AZD1208 (PIM inhibitor), 500 nM PF-06826647 (TYK2 inhibitor), or 500 nM AT9283 (JAK2/3 inhibitor) were added to 1 ml of 1×10^6 cells for each experimental group in 24 well plates. Three days after the one dose treatment, cells were then collected for either analyses by FACS and qPCR, or re-plated into 24 well plates for continued culture. At different time points, re-plated cells were collected for analyses by FACS and qPCR. Medium change was performed every 2-3 days.
RNA Isolation and Real-Time Polymerase Chain Reaction (qPCR) analysis. MV4-11 and MOLM-14 cells were cultured with the presence of TKI drugs for 72 hours or re-plated 28 days after the treatment of TKI drugs. Cells were isolated for RNA isolation and qPCR analysis as previously described. Total RNA was isolated using the RNeasy Micro Kit (Qiagen) according to the manufacturer's instruction. First-strand cDNA was synthesized using the SuperScript III Reverse Transcriptase (Invitrogen; Life Technologies). With an Applied Biosystems 7900HT Real-Time PCR machine, qPCR was performed and analyzed using known primers for the specific markers. The PCR conditions were 10 minutes at 95° C. followed by 40 cycles of 10 seconds at 95° C. and 15 seconds at 60° C. The relative expression level of a gene was determined using the ΔΔCt method and normalized to GAPDH.

MV4-11 cells [2] = assay: FACS time course of CD44+pBAD+ and Ki67+CD33+CD44+ populations in TKI-treated MV4-11; assay type: cell-based, human
Description: To follow the cell fate of TKI-treated MV4-11 and MOLM-14, culturing of blasts were continued by performing medium change every 2-3 days. […] The BAD protein is a pro-apoptotic member of the BCL-2 gene family, which is involved in initiating apoptosis. Dephosphorylated BAD is pro-apoptotic by binding BCL-2 and inactivating BCL-2, while phosphorylated BAD (pBAD) is anti-apoptotic by leaving BCL-2 free to inhibit BAX-triggered apoptosis.
as §1
Flow Cytometry (FACS). Cells were harvested and examined for the expression of cell surface biomarkers (CD) and intracellular proteins by multichromatic FACS as previously described. About 1×10^4˜10^6 cells in 100 μl FACS buffer (PBS containing 1% FBS and 0.05% sodium azide) were stained with various fluorescence-conjugated antibodies specific for the desired cell surface proteins at 4° C. for 30 min. The surface-stained cells were then fixed and permeabilized using the appropriate reagents (e.g. the BD Pharmingen Cytofix/Cytoperm buffer) and stained with different fluorescence-conjugated antibodies specific for the desired intracellular proteins at 4° C. for 2 hours in the permeabilizing buffer (e.g. the BD Perm/Wash buffer). Concentrations of the Abs were used per the manufacturers' recommendations. Finally, the cells were washed twice in the permeabilizing buffer and twice in the FACS buffer before being analyzed on the BD FACSAria II. Data was analyzed using the FlowJo software (Tree Star Inc., Ashland, OR).

[3] = MV4-11, 3 days after TKI treatment, vs control
[4] = MV4-11, 3 days after TKI treatment, vs control non-treatment cells
[5] = MV4-11, 10 days after TKI treatment
[6] = MV4-11, 20 days after TKI treatment
[7] = MV4-11, 10 days after TKI treatment, vs non-treatment control
[8] = MV4-11, 28 days after the treatment
[9] = MV4-11, 28 days after the treatment, vs control non-treatment cells
[10] = MV4-11, 28 days after TKI treatment

Structure (SMILES) | BAD mRNA increase (MV4-11 cells [1]; [4]) [fold] | BAX mRNA increase (MV4-11 cells [1]; [4]) [fold] | BCL-2 mRNA increase (MV4-11 cells [1]; [4]) [fold] | JAK2 mRNA increase (MV4-11 cells [1]; [4]) [fold] | PIAS2 mRNA increase (MV4-11 cells [1]; [4]) | PIM2 mRNA increase (MV4-11 cells [1]; [4]) [fold] | PIM3 mRNA increase (MV4-11 cells [1]; [4]) [fold] | SHP1 mRNA increase (MV4-11 cells [1]; [4]) | SHP2 mRNA increase (MV4-11 cells [1]; [4]) [fold] | SOCS1 mRNA increase (MV4-11 cells [1]; [4]) [fold] | SOCS3 mRNA increase (MV4-11 cells [1]; [4]) [fold] | STAT2 mRNA increase (MV4-11 cells [1]; [4]) [fold] | STAT4 mRNA increase (MV4-11 cells [1]; [4]) [fold] | TYK2 mRNA increase (MV4-11 cells [1]; [4]) [fold] | population of viable CD44+pBAD+ cells (MV4-11 cells [2]; [5]) [%] | population of viable Ki67+CD33+CD44+ cells (MV4-11 cells [2]; [5]) [%] | population of viable CD44+pBAD+ cells (MV4-11 cells [2]; [6]) [%] | population of viable Ki67+CD33+CD44+ cells (MV4-11 cells [2]; [6]) [%] | further results
CCc1nc(C(N)=O)c(Nc2ccc(N3CCC(N4CCN(C)CC4)CC3)c(OC)c2)nc1NC1CCOCC1 [GILT, Gilteritinib] | 23 | 68 | 49 | 6 | about 2 fold | 203 | 134 | about 4 fold | 9 | 153 | 182 | 9 | 23 | 71 | 28.7 | 17.4 | 1.1 | 1.27 | NFκB2 mRNA increase (MV4-11 cells [1]; MV4-11, 80 nM TKI, vs non-treated control): 110 fold; CXCR2 mRNA increase (MV4-11 cells [1]; MV4-11, 3 days after TKI treatment): 109 fold; AKT1 mRNA increase (MV4-11 cells [1]; [3]): 10 fold; PRKACA mRNA increase (MV4-11 cells [1]; [3]): 15 fold; STAT3 mRNA increase (MV4-11 cells [1]; [4]): 2 fold; STAT5A mRNA increase (MV4-11 cells [1]; [4]): 4 fold; CXCR1 mRNA increase (MV4-11 cells [1]; MV4-11, 3 days after TKI treatment, data not shown): about 90 fold
CC(C)(C)c1cc(NC(=O)Nc2ccc(-c3cn4c(n3)sc3cc(OCCN5CCOCC5)ccc34)cc2)no1 [QUIZ, Quizartinib] | 16 | 44 | 31 | 6 | about 2 fold | 120 | 81 | about 3 fold | 5 | 88 | 120 | 6 | 19 | 46 | 93.1 | 68.2 | 20.7 | 52.8 | PIM1 mRNA decrease (MV4-11 cells [1]; [4]): 0.5 fold; PIAS2 mRNA increase (MV4-11 cells [1]; [7]): 570 fold; PIM2 mRNA increase (MV4-11 cells [1]; [7]): 355 fold; PIM3 mRNA increase (MV4-11 cells [1]; [7]): 494 fold; SHP2 mRNA increase (MV4-11 cells [1]; [7]): 9 fold; SOCS1 mRNA increase (MV4-11 cells [1]; [7]): 615 fold; SOCS3 mRNA increase (MV4-11 cells [1]; [7]): 590 fold; STAT2 mRNA increase (MV4-11 cells [1]; [7]): 14 fold; STAT4 mRNA increase (MV4-11 cells [1]; [7]): 28 fold; TYK2 mRNA increase (MV4-11 cells [1]; [7]): 73 fold; PIM2 mRNA increase (MV4-11 cells [1]; [8]): about 2 fold; PIM3 mRNA increase (MV4-11 cells [1]; [8]): about 2 fold; CISH mRNA increase (MV4-11 cells [1]; [9]): about 2 fold; SOCS1 mRNA increase (MV4-11 cells [1]; [9]): ~4 fold; SOCS3 mRNA increase (MV4-11 cells [1]; [9]): about 2 fold; population of viable CD44+pBAD+ cells (MV4-11 cells [2]; [10]): 0.24%; population of viable Ki67+CD33+CD44+ cells (MV4-11 cells [2]; [10]): 1.58%
